Where two headings read alike, the source gives them in different places.
Legend:
human Orexin 1 receptor = target: T1, human Orexin 1 receptor (Homo sapiens, UniProt O43613); test: Assay A: in vitro testing of OX1R potency, OX1R IP1; format: cell-based; conditions: for Kb: 50 nM Orexin A concentration
T1 sequence (O43613 1-425): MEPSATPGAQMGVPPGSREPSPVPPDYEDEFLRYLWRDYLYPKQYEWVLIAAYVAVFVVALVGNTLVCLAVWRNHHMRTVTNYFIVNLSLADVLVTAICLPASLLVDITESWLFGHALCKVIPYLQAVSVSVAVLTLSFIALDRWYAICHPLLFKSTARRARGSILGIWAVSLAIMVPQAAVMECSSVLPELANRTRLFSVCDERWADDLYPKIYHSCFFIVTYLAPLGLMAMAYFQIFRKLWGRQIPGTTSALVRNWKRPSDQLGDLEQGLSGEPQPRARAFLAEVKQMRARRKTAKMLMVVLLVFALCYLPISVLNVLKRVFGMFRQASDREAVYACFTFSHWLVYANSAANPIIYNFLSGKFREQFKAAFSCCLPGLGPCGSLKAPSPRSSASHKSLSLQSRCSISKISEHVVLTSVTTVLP
From the text: Chem. Genomics 2009, 3, 22-32.
A. In Vitro Testing of OX1R Potency: OX1R IP1

human MDR1 P-gp = test: Assay D: efflux in MDCK cells transfected with the human MDR1 gene; format: in vitro ADME, canine; conditions: dog; MDCK-MDR1 monolayers, pH 7.4, 37° C.; read-out: MDCK efflux ratio (BA/AB)
Procedure: The MDCK assay provides information on the potential of a compound to pass the blood brain barrier. Permeability measurements across polarized, confluent MDCK-MDR1 cell monolayers grown on permeable filter supports are used as an in vitro absorption model: apparent permeability coefficients (PE) of the compounds across the MDCK-MDR1 cell monolayers are measured (pH 7.4, 37° C.) in apical-to-basal (AB) and basal-to-apical (BA) transport direction. […] Identical or similar permeabilities in both transport directions indicate passive permeation, vectorial permeability points to additional active transport mechanisms. Higher PEBA than PEAB (PEBA/PEAB>5) indicates the involvement of active efflux mediated by MDR1 P-gp, which might compromises the goal to achieve sufficient brain exposure. Therefore this assay provides valuable support for selection of compounds applicable for further in vivo testing. High permeability not limited by efflux at the blood brain barrier is a favourable characteristic for compounds that are to be used for drugs acting primarily in the CNS
D. Assessment of Efflux in Madin-Darby Canine Kidney (MDCK) Cells Transfected with the Human MDR1 Gene
Apparent permeability coefficients (PE) of the compounds across the MDCK-MDR1 cell monolayers are measured (pH 7.4, 37° C.) in apical-to-basal (AB) and basal-to-apical (BA) transport direction. […] The compounds are assigned to permeability/absorption classes by comparison of the AB permeabilities with the AB permeabilities of reference compounds with known in vitro permeability and oral absorption in the human. Identical or similar permeabilities in both transport directions indicate passive permeation, vectorial permeability points to additional active transport mechanisms. Higher PEBA than PEAB indicates the involvement of active efflux mediated by MDR1 P-gp. Active transport is concentration-dependently saturable.
MDCK-MDR1 cells (1-2×10e5 cells/1 cm2 area) are seeded on filter inserts (Costar transwell polycarbonate or PET filters, 0.4 μm pore size) and cultured (DMEM) for 7 days. Subsequently, the MDR1 expression is boosted by culturing the cells with 5 mM sodium butyrate in full medium for 2 days. Compounds are dissolved in appropriate solvent (like DMSO, 1-20 mM stock solutions). Stock solutions are diluted with HTP-4 buffer (128.13 mM NaCl, 5.36 mM KCl, 1 mM MgSO4, 1.8 mM CaCl2, 4.17 mM NaHCO3, 1.19 mM Na2HPO4×7H2O, 0.41 mM NaH2PO4×H2O, 15 mM HEPES, 20 mM glucose, 0.25% BSA, pH 7.4) to prepare the transport solutions (0.1-300 μM compound, final DMSO<=0.5%). The transport solution (TL) is applied to the apical or basolateral donor side for measuring A-B or B-A permeability (3 filter replicates), respectively. The receiver side contains the same buffer as the donor side. Samples are collected at the start and end of experiment from the donor and at various time intervals for up to 2 hours also from the receiver side for concentration measurement by HPLC-MS/MS or scintillation counting. Sampled receiver volumes are replaced with fresh receiver solution.

[1] = Assay C: metabolic stability in human liver microsomes (Human MST); format: in vitro ADME; conditions: pH 7.6; pooled human liver microsomes, 1 μM compound, 37° C.; read-out: Human MST t1/2
From the text: Stability in human liver microsomes refers to the susceptibility of compounds to biotransformation in the context of selecting and/or designing drugs with favorable pharmacokinetic properties. The primary site of metabolism for many drugs is the liver. Human liver microsomes contain the cytochrome P450s (CYPs), and thus represent a model system for studying drug metabolization in vitro. Enhanced stability in human liver microsomes is associated with several advantages, including increased bioavailability and longer half-life, which can enable lower and less frequent dosing of patients. Thus, enhanced stability in human liver microsomes is a favorable characteristic for compounds that are to be used for drugs.
C. Assessment of Metabolic Stability in Human Liver Microsomes (Human MST)
The metabolic stability of the compounds according to the invention may be investigated as follows:
The metabolic degradation of the test compound is assayed at 37° C. with pooled human liver microsomes. The final incubation volume of 100 μL per time point contains TRIS buffer pH 7.6 at room temperature (0.1 M), MgCl2 (5 mM), microsomal protein (1 mg/mL) and the test compound at a final concentration of 1 μM. Following a short pre-incubation period at 37° C., the reactions are initiated by addition of beta-nicotinamide adenine dinucleotide phosphate, reduced form (NADPH, 1 mM), and terminated by transferring an aliquot into solvent after different time points. After centrifugation (10000 g, 5 min), an aliquot of the supernatant is assayed by LC-MS/MS for the amount of parent compound. The half-life (t1/2) is determined by the slope of the semi-logarithmic plot of the concentration-time profile.

OX2R [2] = target: T2, OX2R (Homo sapiens, UniProt O43614); conditions: cited from earlier work
T2 sequence (O43614 1-444): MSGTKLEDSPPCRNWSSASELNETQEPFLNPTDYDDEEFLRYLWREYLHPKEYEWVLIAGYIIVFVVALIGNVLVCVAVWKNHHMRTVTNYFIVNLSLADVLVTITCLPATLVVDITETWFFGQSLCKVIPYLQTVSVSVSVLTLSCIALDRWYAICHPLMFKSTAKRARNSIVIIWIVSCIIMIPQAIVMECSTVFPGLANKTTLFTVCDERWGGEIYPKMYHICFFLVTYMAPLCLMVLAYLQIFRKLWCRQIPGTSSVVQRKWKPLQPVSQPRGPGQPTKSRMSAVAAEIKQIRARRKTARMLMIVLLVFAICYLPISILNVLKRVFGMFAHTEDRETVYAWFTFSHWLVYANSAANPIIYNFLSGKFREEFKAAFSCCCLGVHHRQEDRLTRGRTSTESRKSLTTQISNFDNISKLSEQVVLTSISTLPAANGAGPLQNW

OX2R [3] = target: T2, OX2R; test: In vitro OX2R potency as reported in WO2016/034882
[4] = Table 3 of WO2016/034882, corresponds to pIC50
[5] = compared to Example 84 in WO2016/034882

Structure (SMILES) | Kb (human Orexin 1 receptor) [nM] | efflux ratio (human MDR1 P-gp) | half-life at 1 μM [1] [h] | also measured
C[C@@H](CNc1ncc(C(F)(F)F)cn1)N(CCF)C(=O)c1cccc(F)c1-n1nccn1 [Example 2] | 0.67 | < 3 | > 2.17 | –
CC[C@@H](CNc1ncc(C(F)(F)F)cn1)N(C)C(=O)c1c(F)cccc1-n1nccn1 [Ex 91 in WO2016/ 034882] | – | – | > 2.17 | IC50 (OX2R [2]; [4]): ≥ 7590 nM; OX2R pIC50 (OX2R [2]; Table 3 of WO2016/034882): < 5.1
CCN(C(=O)c1cc(Cl)ccc1-n1nccn1)[C@@H](C)CNc1cnc(C(F)(F)F)cn1 [Example 10] | 0.011 | < 3 | 2.17 | better potency (OX1R) (human Orexin 1 receptor; compared to Example 40 in WO2016/034882): 16 fold
C[C@@H](CNc1ncc(C(F)(F)F)cn1)N(CC1CC1)C(=O)c1cccc(F)c1-n1nccn1 [Example 1] | 0.214 | < 3 | 1.22 | –
CCN(C(=O)c1ccc(F)c(F)c1-c1ncccn1)[C@@H](C)CNc1ncc(C(F)(F)F)cn1 [Example 8] | 0.014 | < 3 | > 2.17 | higher potency (OX1R) (human Orexin 1 receptor; [5]): over 150 fold
CCN(C(=O)c1cc(Cl)ccc1-n1nccn1)[C@@H](C)CNc1ncc(C(F)(F)F)cn1 [Example 3] | 0.032 | < 3 | 2.17 | –
CCN(C(=O)c1cccc(F)c1-n1nccn1)[C@@H](C)CNc1ncc(C(F)(F)F)cc1C#N [Example 7] | 0.021 | < 3 | 1.48 | –
CC[C@@H](CNc1cnc(C(F)(F)F)cn1)N(C)C(=O)c1cc(Cl)ccc1-n1nccn1 [Ex 40 in WO2016/ 034882] | – | – | – | OX2R IC50/OX1R IC50 (OX2R [3]; Table 1 of WO2016/034882): Table 1: 156
C[C@@H](CNc1ncc(C(F)(F)F)cn1)N(C)C(=O)c1cccc(F)c1-c1ncccn1 [Example 9] | 0.223 | < 3 | > 2.17 | higher potency (OX1R) (human Orexin 1 receptor; [5]): ~10 fold
CCN(C(=O)c1cccc(F)c1-n1nccn1)[C@@H](C)CNc1ncc(Br)cn1 [Example 4] | 0.116 | < 3 | > 2.17 | –
CC[C@@H](CNc1ncc(C(F)(F)F)cn1)N(C)C(=O)c1nc(C)ccc1-n1nccn1 [Ex 46 in WO2016/ 034882] | – | – | – | IC50 (OX2R [2]; Table 2 of WO2016/034882, corresponds to pIC50): > 10000 nM; OX2R pIC50 (OX2R [2]; Table 2 of WO2016/034882): < 5.0; IC50 (OX2R [2]; [4]): ≥ 10000 nM; OX2R pIC50 (OX2R [2]; Table 3 of WO2016/034882): < 5.0; OX2R IC50/OX1R IC50 (OX2R [3]; Table 1 of WO2016/034882): 390; OX2R IC50/OX1R IC50 (OX2R [3]; Table 2 of WO2016/034882): > 312; OX2R IC50/OX1R IC50 (OX2R [3]; Table 3 of WO2016/034882): 3200
CCN(C(=O)c1cnc(C)nc1-c1ccccc1)[C@@H](C)CNc1ncc(Br)cn1 [Example 13] | 0.089 | < 3 | 1.27 | –
CCN(C(=O)c1cc(F)cnc1-n1nccn1)[C@@H](C)CNc1ccc(C(F)(F)F)cn1 [Example 12] | 0.156 | 3 to 5.5 | 0.733 | higher potency (OX1R) (human Orexin 1 receptor; compared to Example 73 in WO2016/034882): approximately 2 fold
CC[C@@H](CNc1ncc(C(F)(F)F)cn1)N(CC)C(=O)c1nc(C)ccc1-n1nccn1 [Ex 73 in WO2016/ 034882] | – | – | – | IC50 (OX2R [2]; [4]): > 1000 nM; OX2R pIC50 (OX2R [2]; Table 3 of WO2016/034882): < 6.0
